Measured values from paper PMC10847070, “State-independent inhibition of the oncogenic Kv10.1 channel by desethylamiodarone, a comparison with amiodarone” (Pflugers Archiv, 2023).

Biological target: T1, Kv10.1 (Eag1) (Homo sapiens, UniProt O95259)
T1 construct: gene KCNH1
T1 sequence (O95259 1-989): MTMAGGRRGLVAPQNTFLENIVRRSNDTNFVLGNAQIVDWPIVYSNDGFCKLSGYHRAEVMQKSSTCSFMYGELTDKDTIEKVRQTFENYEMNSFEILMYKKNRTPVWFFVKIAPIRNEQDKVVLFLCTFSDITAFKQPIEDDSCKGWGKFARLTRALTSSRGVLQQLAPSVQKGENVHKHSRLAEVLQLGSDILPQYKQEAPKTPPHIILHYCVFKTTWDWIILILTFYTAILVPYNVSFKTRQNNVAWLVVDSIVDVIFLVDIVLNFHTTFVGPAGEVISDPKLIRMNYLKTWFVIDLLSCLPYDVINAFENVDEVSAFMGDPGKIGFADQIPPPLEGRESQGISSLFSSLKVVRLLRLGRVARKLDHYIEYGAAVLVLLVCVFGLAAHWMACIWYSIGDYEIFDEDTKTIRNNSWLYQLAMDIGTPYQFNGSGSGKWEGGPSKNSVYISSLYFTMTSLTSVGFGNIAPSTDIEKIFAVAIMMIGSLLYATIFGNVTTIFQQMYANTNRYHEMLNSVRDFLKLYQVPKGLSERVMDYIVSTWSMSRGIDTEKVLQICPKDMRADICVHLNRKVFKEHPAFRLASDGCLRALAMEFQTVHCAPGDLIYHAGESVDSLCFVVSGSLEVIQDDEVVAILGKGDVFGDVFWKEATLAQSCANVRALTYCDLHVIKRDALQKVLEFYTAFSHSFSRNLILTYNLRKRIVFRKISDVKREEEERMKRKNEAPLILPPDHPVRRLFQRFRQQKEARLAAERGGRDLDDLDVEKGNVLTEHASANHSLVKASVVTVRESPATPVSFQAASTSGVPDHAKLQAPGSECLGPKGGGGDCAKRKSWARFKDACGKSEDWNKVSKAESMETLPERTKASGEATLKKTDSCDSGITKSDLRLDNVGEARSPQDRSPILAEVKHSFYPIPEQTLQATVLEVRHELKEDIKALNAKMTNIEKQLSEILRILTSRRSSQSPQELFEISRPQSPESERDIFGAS
Assay: patch-clamp electrophysiology of HEK293 cells stably expressing Kv10.[…]; dose-response at +[…] mV
Type: cell-based

Kd: 1200 nM
Structure (SMILES): CCCCc1oc2ccccc2c1C(=O)c1cc(I)c(OCCNCC)c(I)c1 [desAd, desethylamiodarone]
